According to article PMC12213745, “Compounds from Cyclocarya paliurus leaves inhibit binary division of methicillin-resistant Staphylococcus aureus by disrupting FtsZ dynamic” (Frontiers in Microbiology, 2025):
≈ marks a conversion by molar mass, not a printed value. Like-named read-outs stand apart in the source and are kept apart here.

How the values were obtained:
Type in all cases: cell-based, Methicillin-resistant S. aureus
MRSA-4 [1] = experiment: MIC, broth microdilution (CLSI); conditions: Staphylococcus aureus
Excerpt: Staphylococcus aureus ATCC25923 and Escherichia coli ATCC25922 were obtained from the American Type Culture Collection (ATCC, Manassas, VA, USA). The Methicillin-resistant S. aureus (MRSA) clinical isolate MRSA-4, previously confirmed as mecA-positive and characterized for its antibiotic resistance profile ([Sun et al., 2023]), was used in this study. Staphylococcus epidermidis (GDMCC 1.143), Enterococcus faecalis (GDMCC 1.164), and Salmonella enterica subsp. enterica (GDMCC 1.1114) were obtained from the Guangdong Microbial Culture Collection Center (GDMCC, Guangzhou, China). The Pseudomonas aeruginosa PA14 strain was kindly provided by Professor Min Wu (Southwest Medical University, China). All bacterial strains were routinely cultured in Mueller-Hinton broth (MHB) or Luria-Bertani (LB) broth medium at 37°C with shaking at 200 rpm. Vancomycin was purchased from Solarbio Science & Technology Co., Ltd. (Beijing, China), and oxacillin was obtained from Taiji Group Hengsheng Pharmaceutical Co., Ltd. (Chengdu, China). The polyclonal rabbit primary anti-body to FtsZ was purchased from Abcam PLC (Cambridge, UK). Alexa488-conjugated goat anti-rabbit IgG was purchased from ZSGB-BIO Biotechnology (Beijing, China). DAPI staining solution was purchased from Beyotime Biotechnology (Shanghai, China).
The minimum inhibitory concentrations (MICs) of the test compounds (AA, MA, and UA) were determined using the standard broth microdilution method in accordance with the Clinical and Laboratory Standards Institute (CLSI) guidelines ([Humphries et al., 2021]). Bacteria were cultured in MHB or LB broth at 37°C with shaking (200 rpm) to the logarithmic phase, then diluted to a final density of 1 × 10^6 CFU/mL. Test compounds (dissolved in DMSO) and positive controls (vancomycin and oxacillin) were diluted in MHB and serially twofold diluted in 96-well plates. Each well was inoculated with 100 μL of bacterial suspension (1 × 10^6 CFU/mL), yielding a final bacterial density of 5 × 10^5 CFU/mL and a total volume of 200 μL. The final concentrations tested were 128 to 1 μg/mL for AA, MA, and UA; 16 to 0.5 μg/mL for vancomycin; and 64 to 0.0625 μg/mL for oxacillin. DMSO was used as a solvent control. Plates were incubated statically at 37°C for 18–24 h. After incubation, the OD600 was measured using a microplate reader (SpectraMax i3x, Molecular Devices, CA, USA). The MIC was defined as the lowest compound concentration that caused ≥ 90% inhibition of bacterial growth compared to the drug-free growth control. All tests were performed in three independent biological replicates.
Following the isolation and identification of AA, MA, and UA from ECPL, we evaluated their antibacterial activity and spectrum. The MICs of the compounds were determined against MRSA-4, S. aureus ATCC25923, S. epidermidis, and E. faecalis (Gram-positive), as well as P. aeruginosa PA14, E. coli ATCC25922, and S. enterica subsp. Enterica (Gram-negative) using the standard broth microdilution method in accordance with CLSI guidelines ([Humphries et al., 2021]).

MRSA-4 [2] = experiment: SEM analysis, cell long axis; conditions: 2 × MIC, 2 h, mean ± SD, PBS control 0.53 ± 0.04
Description: Scanning electron microscopy (SEM) was used to observe the morphological changes in bacterial cells treated with the isolated compounds. S. aureus ATCC 25923 and MRSA-4 were grown in MHB to mid-log phase (OD600 = 0.4–0.6) as previously described. The bacteria cultures were treated with AA, MA, or UA at 2 × MIC for 2 h at 37°C with shaking at 150 rpm. Untreated cultures (PBS group) served as the growth control. After incubation, bacterial cells were harvested by centrifugation and washed three times with PBS (pH 7.2). Coverslips (8 mm diameter) were cleaned with absolute ethanol under ultrasonication, air-dried, immersed in 0.1% (w/v) chitosan solution (dissolved in 1% acetic acid) for 5 s, and air-dried again at room temperature ([Su et al., 2022]). A 25 μL aliquot of the washed bacterial suspension was added to each coverslip and allowed to adhere for 1 h at room temperature. Adhered cells were fixed with 1 mL of 2.5% (v/v) glutaraldehyde at 4°C overnight. Fixed samples were rinsed 2–3 times with PBS (5 min per rinse), then dehydrated through a graded ethanol series: 50, 70, and 90% ethanol (each once for 5 min), followed by 100% ethanol (three times for 5 min each). After dehydration, samples were air-dried overnight at room temperature. SEM imaging was performed using an EVO 10 scanning electron microscope (Zeiss, Jena, Germany). Cell long-axis statistical analysis was conducted using ImageJ software (Version 1.42q, National Institutes of Health, MD, USA).
Having established the antibacterial activity of AA, MA, and UA, we next examined their effects on bacterial morphology. We employed SEM to examine the alterations induced by these compounds in S. aureus ATCC25923 and MRSA-4. Bacterial cultures were treated with AA, MA, or UA at 2 × MIC for 2 h, while untreated (PBS group) cultures served as negative controls. […] In PBS groups, both S. aureus ATCC25923 and MRSA-4 maintained typical spherical morphology with smooth and intact surfaces.

MRSA-4 [3] = experiment: TEM analysis of septum formation; conditions: 1 × MIC, 4 h
Description: MRSA-4 was cultured in MHB to mid-log phase as described above. The cultures were then treated with AA, MA, or UA (at 1 × MIC) or with an equal volume of PBS (negative control) for 4 h at 37°C. After treatment, bacterial suspensions were collected by centrifugation at 13,000 × g for 3 min, and the resulting pellets were washed with PBS. Pellets were fixed in 2.5% glutaraldehyde prepared in 0.1 M cacodylate buffer (pH 7.2). Following fixation, samples were dehydrated in a graded ethanol series (30 to 100%), with 100% ethanol replaced three times. Samples were infiltrated with acetone/Epon-812 resin mixtures at ratios of 3:1, 1:1, and 1:3, then embedded in pure Epon-812 resin. Ultrathin sections (60–90 nm) were cut and placed on copper grids. The sections were stained with saturated uranyl acetate for 10–15 min, followed by lead citrate for 1–2 min. Structural and morphological changes in the bacterial cells were observed using a JEOL JEM-1400FLASH transmission electron microscope (JEOL, Japan).
We first evaluated the impact of AA, MA, and UA on septum formation in MRSA-4 cells using TEM. MRSA-4 cultures were treated with AA, MA, or UA at 1 × MIC for 4 h, with PBS-treated cells serving as the control. […] These abnormalities imply that AA, MA, and UA disrupt the septum formation process, which is essential for successful cell division.

[4] = MRSA-4, ≥ 90% growth inhibition, 18–24 h, read-out: MIC

SMILES	MIC (MRSA-4 [1]; [4]) [µg/mL]	length of long axis of cells (MRSA-4 [2]) [μm]	septum formation (TEM) (MRSA-4 [3])	MIC (MRSA-4 [1]; MRSA) [µg/mL]
C[C@H]1[C@H](C)CC[C@]2(C(=O)O)CC[C@]3(C)C(=CC[C@@H]4[C@@]5(C)C[C@@H](O)[C@H](O)[C@@](C)(CO)[C@@H]5CC[C@]43C)[C@H]12 [AA, asiatic acid]	32 (≈ 65.5 µM)	0.75 ± 0.07	incomplete, mislocalized, or absent septa	
CC1(C)CC[C@]2(C(=O)O)CC[C@]3(C)C(=CC[C@@H]4[C@@]5(C)C[C@@H](O)[C@H](O)C(C)(C)[C@@H]5CC[C@]43C)[C@@H]2C1 [MA, maslinic acid]		0.76 ± 0.10	incomplete, mislocalized, or absent septa	32 (≈ 67.7 µM)
C[C@H]1[C@H](C)CC[C@]2(C(=O)O)CC[C@]3(C)C(=CC[C@@H]4[C@@]5(C)CC[C@H](O)C(C)(C)[C@@H]5CC[C@]43C)[C@H]12 [UA, ursolic acid]	8 (≈ 17.5 µM)	0.69 ± 0.06	incomplete, mislocalized, or absent septa	
